We go through 18 compounds from ChEMBL document CHEMBL1132508, “N,N-dialkyl-dipeptidylamines as novel N-type calcium channel blockers” (Bioorg Med Chem Lett, 1999).

Each structure is given as a SMILES string. Square brackets hold non-standard residues; d marks the D form. Peptide text beside a SMILES is read from it. * marks the point of attachment. NMeL = CN[C@@H](CC(C)C)C(=O)O; Bz = O=C(c1ccccc1)*; NHtBu = CC(C)(C)N*

For experiment [1], the target named is Voltage-dependent N-type calcium channel subunit alpha-1B (Homo sapiens, UniProt Q00975). Briefly: In vitro inhibitory activity against N-type calcium channel in the IMR-32 human neuroblastoma cells. In kind it is cell-based.
For experiment [2], the system named is Mus musculus. Briefly: Ability to prevent the audiogenic seizure (tonic seizure phase) in DBA/2 mice (N = 5 mice/ dose tested) tested in vivo at a concentration of 10 mg/kg. It is filed as functional.
Experiment [3] relates to Mus musculus. Briefly: Ability to prevent the audiogenic seizure (tonic seizure phase) in DBA/2 mice (N = 5 mice/ dose tested) tested in vivo at a concentration of 3 mg/kg. It is filed as functional.
Experiment [4] has as its system Mus musculus. Description: Ability to prevent the audiogenic seizure (tonic seizure phase) in DBA/2 mice (N = 5 mice/ dose tested) tested in vivo at a concentration of 100 mg/kg. It is filed as functional.

What is called IC50 is the point on the concentration scale where inhibition reaches its midpoint.

Voltage-dependent N-type calcium channel subunit alpha-1B, sequence (Q00975 whole entry): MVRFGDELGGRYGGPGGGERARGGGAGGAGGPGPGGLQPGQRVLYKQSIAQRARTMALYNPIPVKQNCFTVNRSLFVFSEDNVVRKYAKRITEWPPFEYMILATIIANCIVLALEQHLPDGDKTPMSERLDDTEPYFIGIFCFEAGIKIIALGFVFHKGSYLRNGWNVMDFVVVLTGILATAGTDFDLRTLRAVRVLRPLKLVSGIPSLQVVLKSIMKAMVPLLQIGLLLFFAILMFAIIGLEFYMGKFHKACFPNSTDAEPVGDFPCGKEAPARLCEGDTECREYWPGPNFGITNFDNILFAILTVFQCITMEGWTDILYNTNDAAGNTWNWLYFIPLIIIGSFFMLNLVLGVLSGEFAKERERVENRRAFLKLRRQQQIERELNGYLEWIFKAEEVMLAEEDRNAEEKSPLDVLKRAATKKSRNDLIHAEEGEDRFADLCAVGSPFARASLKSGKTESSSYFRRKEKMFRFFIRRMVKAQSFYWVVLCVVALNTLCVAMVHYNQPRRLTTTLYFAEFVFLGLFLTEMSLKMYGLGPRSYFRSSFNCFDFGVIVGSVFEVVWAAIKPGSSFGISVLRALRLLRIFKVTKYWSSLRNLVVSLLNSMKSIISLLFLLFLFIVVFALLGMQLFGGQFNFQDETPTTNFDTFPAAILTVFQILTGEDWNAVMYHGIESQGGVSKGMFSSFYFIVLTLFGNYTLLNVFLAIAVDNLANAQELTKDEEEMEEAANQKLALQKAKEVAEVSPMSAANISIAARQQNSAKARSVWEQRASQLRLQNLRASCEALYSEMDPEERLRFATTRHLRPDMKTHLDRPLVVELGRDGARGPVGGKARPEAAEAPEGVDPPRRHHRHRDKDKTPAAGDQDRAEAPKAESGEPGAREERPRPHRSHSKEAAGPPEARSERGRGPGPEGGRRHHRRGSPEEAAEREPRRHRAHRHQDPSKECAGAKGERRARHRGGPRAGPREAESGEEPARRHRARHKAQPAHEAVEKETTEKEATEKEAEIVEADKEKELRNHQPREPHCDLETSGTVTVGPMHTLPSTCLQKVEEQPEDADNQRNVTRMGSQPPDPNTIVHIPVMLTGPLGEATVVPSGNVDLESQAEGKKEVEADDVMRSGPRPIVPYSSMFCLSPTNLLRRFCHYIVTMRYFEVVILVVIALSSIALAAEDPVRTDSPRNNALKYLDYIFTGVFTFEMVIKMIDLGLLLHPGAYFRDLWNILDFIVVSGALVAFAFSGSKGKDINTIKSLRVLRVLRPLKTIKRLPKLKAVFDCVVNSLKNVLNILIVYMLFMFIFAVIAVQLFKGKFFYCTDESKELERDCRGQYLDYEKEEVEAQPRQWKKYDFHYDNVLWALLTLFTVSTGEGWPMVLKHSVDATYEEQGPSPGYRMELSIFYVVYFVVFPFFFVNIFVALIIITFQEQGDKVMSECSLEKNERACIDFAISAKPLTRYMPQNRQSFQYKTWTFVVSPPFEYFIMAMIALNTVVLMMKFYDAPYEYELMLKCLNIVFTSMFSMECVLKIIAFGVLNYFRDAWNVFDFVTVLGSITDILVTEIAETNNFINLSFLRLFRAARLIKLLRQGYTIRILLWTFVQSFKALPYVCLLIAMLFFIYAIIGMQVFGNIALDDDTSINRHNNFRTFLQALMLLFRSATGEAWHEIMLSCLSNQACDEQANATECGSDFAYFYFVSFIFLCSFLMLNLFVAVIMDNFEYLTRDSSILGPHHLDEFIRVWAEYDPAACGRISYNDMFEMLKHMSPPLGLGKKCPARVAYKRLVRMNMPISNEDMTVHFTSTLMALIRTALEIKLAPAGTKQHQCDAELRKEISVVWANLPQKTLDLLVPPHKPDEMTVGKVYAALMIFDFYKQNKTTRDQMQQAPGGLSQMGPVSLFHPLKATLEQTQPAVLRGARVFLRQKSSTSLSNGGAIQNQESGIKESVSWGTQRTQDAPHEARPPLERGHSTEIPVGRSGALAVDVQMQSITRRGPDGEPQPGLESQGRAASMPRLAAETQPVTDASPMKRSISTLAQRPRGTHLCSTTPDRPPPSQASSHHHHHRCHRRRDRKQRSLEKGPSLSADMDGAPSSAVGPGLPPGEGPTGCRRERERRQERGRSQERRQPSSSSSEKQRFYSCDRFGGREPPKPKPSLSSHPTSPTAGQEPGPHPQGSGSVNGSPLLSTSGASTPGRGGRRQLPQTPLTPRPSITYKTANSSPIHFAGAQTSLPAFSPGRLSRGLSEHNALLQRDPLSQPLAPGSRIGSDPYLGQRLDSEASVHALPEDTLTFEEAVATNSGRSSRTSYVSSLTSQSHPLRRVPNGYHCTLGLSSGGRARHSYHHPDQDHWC

Take `CC(C)C[C@H](NC(=O)N1CCCCCC1)C(=O)N[C@@H](Cc1ccc(OC(=O)c2ccccc2)cc1)C(=O)NC(C)(C)C`: the IC50 in experiment [1] amounted to 590 nM.
Consider `CC(C)C[C@@H](C(=O)N[C@@H](Cc1ccc(OC(=O)c2ccccc2)cc1)C(=O)NC(C)(C)C)N(C)CCC(C)O` (some centres undefined), for which the Protection in experiment [2] came out at 40%. Besides, in experiment [1], the IC50 turned out to be 2200 nM.
For `CC(C)C[C@@H](C(=O)N[C@@H](Cc1ccc(OC(=O)c2ccccc2)cc1)C(=O)NC(C)(C)C)N(C)CCC(C)(C)C`, the IC50 in experiment [1] stood at 400 nM.
Regarding `CCOC(=O)CN(C)[C@@H](CC(C)C)C(=O)N[C@@H](Cc1ccc(OC(=O)c2ccccc2)cc1)C(=O)NC(C)(C)C`, in experiment [1], the IC50 was 4400 nM.
For `CC(C)C[C@@H](C(=O)N[C@@H](Cc1ccc(OC(=O)c2ccccc2)cc1)C(=O)NC(C)(C)C)N(C)C1CCOCC1`, the IC50 in experiment [1] turned out to be 3100 nM.
For the compound `CC(C)C[C@@H](C(=O)N[C@@H](Cc1ccc(OC(=O)c2ccccc2)cc1)C(=O)NC(C)(C)C)N(C)C(C)C`, in experiment [1], the IC50 worked out at 2800 nM.
On the same count and under the same terms, to `CC(C)C[C@H](NC(=O)N1CCCCCC1)C(=O)N[C@@H](Cc1ccc(OC(=O)c2ccccc2)cc1)C(=O)OC(C)(C)C` belongs 320 nM; to `CC(C)C[C@@H](C(=O)N[C@@H](Cc1ccc(OC(=O)c2ccccc2)cc1)C(=O)NC(C)(C)C)N1CCOCC1`, 6400 nM; to `CC(C)C[C@H](N)C(=O)N[C@@H](Cc1ccc(OC(=O)c2ccccc2)cc1)C(=O)NC(C)(C)C` (H-Leu-Tyr(Bz)-NHtBu), 3800 nM.
Same read-out and setting: for `CCCCN(C)[C@@H](CC(C)C)C(=O)N[C@@H](Cc1ccc(OC(=O)c2ccccc2)cc1)C(=O)NC(C)(C)C` the value was 280 nM.
`CC(C)C[C@@H](C(=O)N[C@@H](Cc1ccc(OC(=O)c2ccccc2)cc1)C(=O)NC(C)(C)C)N(C)CC1CCCCC1` showed a Protection in experiment [2] of 20%. Further, the IC50 in experiment [1] came to 700 nM.
For the compound `CC(C)CCN(C)[C@@H](CC(C)C)C(=O)N[C@@H](Cc1ccc(OC(=O)c2ccccc2)cc1)C(=O)NC(C)(C)C`, the Protection was 80% in experiment [2] and 20% in experiment [3]. Moreover, the IC50 in experiment [1] worked out at 320 nM.
`CC(C)C[C@@H](C(=O)N[C@@H](Cc1ccc(OC(=O)c2ccccc2)cc1)C(=O)NC(C)(C)C)N1CCCCC1`: the IC50 in experiment [1] is 1400 nM.
In the case of `CC(C)C[C@@H](C(=O)N[C@@H](Cc1ccc(OC(=O)c2ccccc2)cc1)C(=O)NC(C)(C)C)N(C)C1CCCCC1`, the Protection came to 100% in experiment [4] and 20% in experiment [3]. In addition, in experiment [1], the IC50 was 200 nM.
As to `CCC(C)N(C)[C@@H](CC(C)C)C(=O)N[C@@H](Cc1ccc(OC(=O)c2ccccc2)cc1)C(=O)NC(C)(C)C` (some centres undefined), the IC50 in experiment [1] worked out at 1500 nM.
With `CC(C)C[C@@H](C(=O)N[C@@H](Cc1ccc(OC(=O)c2ccccc2)cc1)C(=O)NC(C)(C)C)N(C)C`, the IC50 in experiment [1] worked out at 2300 nM.
Turning to `CC(C)C[C@@H](C(=O)N[C@@H](Cc1ccc(OC(=O)c2ccccc2)cc1)C(=O)NC(C)(C)C)N(C)CC(C)C`, the 50% inhibitory concentration (IC50) in experiment [1] was 380 nM.
Consider `CN[C@@H](CC(C)C)C(=O)N[C@@H](Cc1ccc(OC(=O)c2ccccc2)cc1)C(=O)NC(C)(C)C` (H-[NMeL]-Tyr(Bz)-NHtBu), for which the IC50 in experiment [1] was 2300 nM.
